Measurements taken from patent publication US7498336B2, “Deazaflavin compounds and methods of use thereof” (The United States of America as represented by the …, priority 2003, dated 2009).
“Also recorded” adds a separate entry of the source.

Legend:
Assay type in all cases: biochemical
Nedd4 = biological target: T1, Nedd4 (Homo sapiens, UniProt P46934); assay: In vitro ubiquitination assay (E1+E2+E3) with unrelated E3 ligase; details: gel assay, FIG. 2B, 2C
T1 construct: made in house
T1 sequence (P46934 1-1319): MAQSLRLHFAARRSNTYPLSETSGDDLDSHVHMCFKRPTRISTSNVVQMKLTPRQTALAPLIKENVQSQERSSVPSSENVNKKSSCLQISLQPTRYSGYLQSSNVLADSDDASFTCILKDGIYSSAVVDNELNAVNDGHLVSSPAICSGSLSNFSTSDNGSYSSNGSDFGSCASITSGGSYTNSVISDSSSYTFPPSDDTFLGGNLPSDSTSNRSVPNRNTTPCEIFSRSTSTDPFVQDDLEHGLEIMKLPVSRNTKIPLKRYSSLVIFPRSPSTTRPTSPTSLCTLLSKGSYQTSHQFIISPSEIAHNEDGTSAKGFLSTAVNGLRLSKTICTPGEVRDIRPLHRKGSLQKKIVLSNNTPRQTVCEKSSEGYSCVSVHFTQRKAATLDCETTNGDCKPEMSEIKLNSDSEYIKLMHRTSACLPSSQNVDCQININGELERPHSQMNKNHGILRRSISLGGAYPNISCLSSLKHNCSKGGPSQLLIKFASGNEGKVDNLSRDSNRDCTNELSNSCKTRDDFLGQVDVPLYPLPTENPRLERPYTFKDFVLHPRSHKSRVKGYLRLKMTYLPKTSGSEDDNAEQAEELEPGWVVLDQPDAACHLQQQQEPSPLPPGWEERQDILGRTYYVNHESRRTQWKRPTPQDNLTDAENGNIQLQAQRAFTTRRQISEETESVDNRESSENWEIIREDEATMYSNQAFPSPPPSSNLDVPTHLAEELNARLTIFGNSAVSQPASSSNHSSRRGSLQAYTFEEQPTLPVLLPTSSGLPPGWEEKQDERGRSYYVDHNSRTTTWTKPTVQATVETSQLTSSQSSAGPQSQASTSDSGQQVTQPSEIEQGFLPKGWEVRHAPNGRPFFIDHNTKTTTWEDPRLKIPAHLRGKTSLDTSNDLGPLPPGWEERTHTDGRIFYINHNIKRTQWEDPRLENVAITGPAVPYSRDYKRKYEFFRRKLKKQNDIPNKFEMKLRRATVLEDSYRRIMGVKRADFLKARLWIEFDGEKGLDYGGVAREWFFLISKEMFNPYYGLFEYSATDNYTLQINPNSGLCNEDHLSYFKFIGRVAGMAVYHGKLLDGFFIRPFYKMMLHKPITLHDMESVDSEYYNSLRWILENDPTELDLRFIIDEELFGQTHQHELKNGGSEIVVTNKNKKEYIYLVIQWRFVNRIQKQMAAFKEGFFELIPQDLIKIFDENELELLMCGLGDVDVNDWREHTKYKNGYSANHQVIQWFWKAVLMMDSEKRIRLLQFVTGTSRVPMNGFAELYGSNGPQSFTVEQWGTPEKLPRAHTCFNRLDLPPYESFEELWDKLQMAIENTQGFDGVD
Method: 1 pmole per experimental point of bacterially expressed GST-MDM2 (or GST-Nedd) was coupled to glutathione Sepharose (GS) for 30 minutes at room temperature with tumbling, followed by 3× wash with 50 mM Tris pH 7.5. Following this, 20 μl of 1× buffer was added (40 μl 10× reaction buffer*, 40 μl 10× PCK**, 320 μl dH2O). The test compound in DMSO is then added to the desired concentration with an equal volume of DMSO used as a control. Samples are incubated with shaking for 1 hr at 23° C. To carry out the reaction, a pre-made cocktail of Rabbit E1 (Calbiochem #6620700)/UbcH5B/^32P Ub cocktail (1 μl/0.5 μl/1 μl) is added followed by 15 minutes shaking at 30° C. The reaction is terminated by addition of 8 μl 4× reducing SDS-PAGE loading buffer. After dissociating proteins from the beads at 100° C. for 2 minutes, samples are resolved on 6% PAGE followed by exposure of the dried gel to phosphor screen. Note: ^32P Ub is derived from GST-Ub that has been engineered to include a PKA phosphorylation site. This fusion protein is purified on glutathione Sepharose, phosphorylated, following this, the ^32P Ub ubiquitin is cleaved and purified away from the thrombin.

GST-UbcH5B = biological target: T2, GST-UbcH5B (Homo sapiens, UniProt P62837); assay: E1+E2 assay with immobilized E2 (thiol-ester linkage with E2); details: FIG. 2E
T2 construct: made in house
T2 sequence (P62837 whole entry): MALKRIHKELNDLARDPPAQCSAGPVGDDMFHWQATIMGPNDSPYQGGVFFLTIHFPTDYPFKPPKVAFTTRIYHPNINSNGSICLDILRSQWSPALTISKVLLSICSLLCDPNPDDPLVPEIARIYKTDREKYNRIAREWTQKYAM
Method: c. E1+E2 Assay with Immobilized E2
20 pmoles of bacterially-expressed GST-UbcH5B is bound to GS for 30 minutes at room temperature after washing in 50 mM Tris pH 7.5. Twenty (20) μl of 1× reaction buffer is added. After incubation with the test compound for 1 hour at 23° C. the beads were washed with 50 mM Tris pH 7.5. This was followed by addition of Rabbit E1/32P Ub cocktail (1 μl/1 μl) followed by incubation at 1 hour shaking at 23° C. This is followed by resolution by SDS-PAGE under non-reducing conditions and exposure as above.

[1] = biological target: T3, p53 pre-bound to GST-MDM2 (Homo sapiens, UniProt Q00987); assay: In vitro p53 ubiquitination assay; details: cellular p53 pre-bound to GST-MDM2, FIG. 2G
T3 construct: made in house; host or cells: GST-MDM2: bacteria; p53: SaOS-p53 inducible cells
T3 sequence (Q00987 whole entry): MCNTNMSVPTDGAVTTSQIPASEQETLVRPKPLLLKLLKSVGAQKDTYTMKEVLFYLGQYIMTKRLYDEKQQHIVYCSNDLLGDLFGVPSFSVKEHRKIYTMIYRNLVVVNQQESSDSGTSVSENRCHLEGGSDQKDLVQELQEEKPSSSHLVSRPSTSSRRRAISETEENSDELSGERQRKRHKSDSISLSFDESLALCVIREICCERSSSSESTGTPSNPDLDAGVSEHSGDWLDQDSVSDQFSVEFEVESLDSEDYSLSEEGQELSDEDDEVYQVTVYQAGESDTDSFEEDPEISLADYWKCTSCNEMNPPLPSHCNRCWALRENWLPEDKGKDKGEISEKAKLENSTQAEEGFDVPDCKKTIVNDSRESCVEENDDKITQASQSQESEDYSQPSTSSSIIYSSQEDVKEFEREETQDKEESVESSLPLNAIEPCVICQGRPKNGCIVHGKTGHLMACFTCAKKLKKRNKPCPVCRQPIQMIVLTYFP
T3 sequence (P04637 whole entry partner): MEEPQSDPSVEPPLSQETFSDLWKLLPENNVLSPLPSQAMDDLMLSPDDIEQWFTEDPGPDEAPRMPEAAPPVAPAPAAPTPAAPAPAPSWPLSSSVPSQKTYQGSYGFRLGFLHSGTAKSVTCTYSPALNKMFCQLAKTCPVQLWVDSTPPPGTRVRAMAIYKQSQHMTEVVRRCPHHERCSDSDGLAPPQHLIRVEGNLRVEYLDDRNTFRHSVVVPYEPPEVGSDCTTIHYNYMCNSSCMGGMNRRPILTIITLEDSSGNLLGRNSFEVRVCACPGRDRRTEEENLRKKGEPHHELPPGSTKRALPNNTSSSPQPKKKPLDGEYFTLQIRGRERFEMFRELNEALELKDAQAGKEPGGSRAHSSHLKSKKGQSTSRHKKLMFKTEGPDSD
Method: d. In Vitro R53 Ubiguitination Assay
p53 protein from SaOS-p53 inducible cell lysate was purified from cells using GST-MDM2 (5 pmol) pre-bound to GS beads. Samples were then incubated with test compounds as above. Subsequently 2 μl rabbit E1, 1 μl UbcH5b, and 10 μg of ubiquitin were added. After reaction for 15 min at 23° C., samples were subject to SDS-PAGE under reducing conditions, transferred to nitrocellulose membranes and immunoblotted with anti-p53 (DO-1) followed by ECL using standard techniques.

O=c1nc2n(-c3cccc(Cl)c3)c3ccc([N+](=O)[O-])cc3cc-2c(=O)[nH]1 [Compound 98C07, 10-(-3-chloro-phenyl)-7-nitro-10H-pyrimido[4,5-b]quinoline-2,4-dione]
selectivity of inhibition of MDM2 versus unrelated E3 ligase Nedd4 (Nedd4): shows some selectivity as an inhibitor of MDM2; also recorded: specificity of MDM2
inhibition of thiol-ester linkage of ubiquitin with E2 (GST-UbcH5B): inhibits neither thiol-ester linkages of ubiquitin with E1 nor E2
inhibition of p53 ubiquitination by MDM2 [1]: significant dose-dependent inhibition of p53 ubiquitination
